Values of other authors, collected in US11020390B2, “Bioequivalent pharmaceutical composition of vortioxetine hydrobromide” (UNICHEM LABORATORIES LTD, priority 2017, dated 2021).

Br.Cc1ccc(Sc2ccccc2N2CCNCC2)c(C)c1 [vortioxetine hydrobromide, 1-[2-(2,4-Dimethyl-phenylsulfanyl)-phenyl]-piperazine, hydrobromide]
solubility in water: relatively poor
